Where two headings read alike, the source gives them in different places. Marks after values point to notes of the source that are not given here.
Legend:
Mt-trHbN(III) [1] = molecular target: T1, Mt-trHbN(III) (Mycobacterium tuberculosis, UniProt P9WN25); experiment: biochemical; type: binding; conditions: pH 7
T1 construct: made in house

Mt-trHbN(III) [2] = molecular target: T1, Mt-trHbN(III); experiment: Peroxynitrite isomerization by Mt-trHbN(III) in the absence and presence of isoniazid; type: biochemical; conditions: [azide] >10×H
Experimental: Rapid-mixing experiments were performed using either the SX18.MV stopped-flow apparatus (Applied Photophysics, Salisbury, United Kingdom) or the SFM-20 stopped-flow apparatus (Bio-Logic SAS, Claix, France); the dead time was 1.0 ms.
Kinetics of peroxynitrite isomerization by Mt-trHbN(III) in the absence and presence of isoniazid was recorded spectrophotometrically at 302 nm (ε302 nm = 1.705×10^3 M^−1 cm^−1) [60]–[67] in the absence and presence of Mt-trHbN(III) (final concentration 2.5×10^−6 – 1.0×10^−5 M) and isoniazid (final concentration 3.0×10^−5 – 4.0×10^−4 M) by rapid mixing the Mt-trHbN(III) or buffer solution with the peroxynitrite solution (final concentration 2.5×10^−4 M).
Kinetics of peroxynitrite isomerization by Mt-trHbN(III) in the absence and presence of isoniazid was analyzed in the framework of the minimum reaction mechanism depicted by Scheme D [60]–[67]: [drawing 11] (D)
Values of the pseudo-first-order rate constant for Mt-trHbN(III)-mediated peroxynitrite isomerization (i.e., l ^obs) were determined in the absence and presence of isoniazid according to Equation 8 [60]–[67]: [drawing 12] (8)
Values of the second-order rate constant for Mt-trHbN(III)-mediated peroxynitrite isomerization (i.e., l on) and of the first-order rate constant for peroxynitrite isomerization in the absence of Mt-trHbN(III) (i.e., l 0) were determined from the linear dependence of l ^obs values on the Mt-trHbN(III) concentration according to Equation 9 [60]–[67]: [drawing 13] (9)
The value of K for isoniazid binding to Mt-trHbN(III) was determined from the dependence of l on the drug concentration (i.e., 3.0×10^−5 M ≤ [isoniazid] ≤4.0×10^−4 M) according to Equation 11 [60]–[67]: [drawing 15] (11) where l on ^app is the value of l on in the presence of isoniazid.

Sperm whale Mb(III) = conditions: pH 7.0, 25.0°C, cited from earlier work
Mt-trHbN(III) [3] = molecular target: T1, Mt-trHbN(III); type: biochemical
[4] = absence of Mt-trHbN(III), isoniazid and azide

For `[N-]=[N+]=[N-]` [azide], the “first-order dissociation rate constant h off” value (Mt-trHbN(III) [1]) was “h off = (7.1±0.8)×10^−1 s^−1”, the “second-order association rate constant h on” value (Mt-trHbN(III) [1]) was “h on = (9.6±1.1)×10^3 M^−1 s^−1” and the Kd (Mt-trHbN(III) [1]; read-out: H calculated from kinetic parameters (h off/h on)) was 74 µM. The Kd (Mt-trHbN(III) [1]; read-out: dissociation equilibrium constant H for azide binding to Mt-trHbN(III)) was 73 µM, the “Mt-trHbN(III) catalysis of peroxynitrite isomerization” value (Mt-trHbN(III) [2]) was “does not catalyze the isomerization of peroxynitrite” and the “average yield of NO2 –” value [4] was 29%. The “average yield of NO3 –” value [4] was 72%, the “NO2 –” value (pH 7) was 27±6% and the “NO3 –” value (pH 7) was 74±5%. The “NO3 – + NO2 –” value (pH 7) was 101%, the “h off for azide binding to sperm whale Mb(III)” value (Sperm whale Mb(III)) was “h off = 3.0×10^−1 s^−1 ^d” and the “h on for azide binding to sperm whale Mb(III)” value (Sperm whale Mb(III)) was “h on = 4.4×10^3 M^−1 s^−1 ^d”. For the same compound, the Kd (Sperm whale Mb(III); read-out: H for azide binding to sperm whale Mb(III)) was 50 µM, the “average yield of NO2 –” value (Mt-trHbN(III) [3]) was 26% and the “average yield of NO3 –” value (Mt-trHbN(III) [3]) was 74%. For the same compound, the “NO2 –” value (Mt-trHbN(III) [3]; pH 7) was 26±4%, the “NO3 –” value (Mt-trHbN(III) [3]; pH 7) was 73±7% and the “NO3 – + NO2 –” value (Mt-trHbN(III) [3]; pH 7) was 99%.

From PMC3731299, “Isoniazid Inhibits the Heme-Based Reactivity of Mycobacterium tuberculosis Truncated Hemoglobin N” (PLoS ONE, 2013)
